According to US6352715B1, “Transdermal rate-controlled delivery of Huperzine A for treatment of alzheimer's disease” (priority 1998, dated 2002):

Tests used:
[1] = single oral dose of 0.99 mg, six volunteers; cited from earlier work
[2] = pH/solubility profile in buffers; format: physicochemical; conditions: 37° C., 24 hours
Description: In order to conserve the drug quantity being used, single point solubility determinations were carried out. Six different buffers were prepared in to determine the solubility of Hup A. The pH range chosen to study solubility is in 2 units above and 2 units below the pKa of the drug, i.e., 5 to 9. In addition, pH 7.4 was also selected to determine solubility at the physiological pH. To determine solubility, weighed amounts of Hup A were added to six different glass vials. In each vial, 1 ml of the respective buffer was added. The vials were tightly closed and kept in a shaking water bath maintained at 37° C. for 24 hours. At the end of such period, the supernatant solution was filtered through 0.22 um nylon filters into pre-warmed tubes. An aliquot of the filtrate was further diluted and analyzed by HPLC.
It can be seen that at pH 2 units above the pKa, i.e., at pH 9, the solubility of Hup A is the lowest. At low pH, i.e., at pH 5, the solubility of Hup A is seen to be high. This is expected as at pH 5, the drug predominantly exists as an ionized moiety with a single positive charge. These charged ions are hydrophilic and can be easily solubilized by water. At pH 9, the drug predominantly exists as an neutral moiety which is lipophilic, thus the solubility is low. The log of solubility as a function of solution pH is explained by the Henderson-Hasselback equation: […]

[3] = test system: patients; conditions: orally 0.2 mg (4 tablets, b.i.d) for 8 weeks; cited from earlier work
[4] = test system: rat cortex; conditions: cited from earlier work
[5] = Determination of pKa of Hup A by pH titration; format: physicochemical; conditions: 5×10^−4 M in water titrated with HCl
Description: A solution of the Hup A was prepared in water to obtain a concentration of 5×10^−4 M solution. Hydrochloric acid solution 0.005M was prepared by dilution of concentrated acid. Similarly, a NaOH solution was prepared by diluting commercially available 1N solution.
For all titration, the procedure used was similar and is described below. The solution to be titrated was taken in a breaker and continually mixed using a magnetic stir bar. A pH electrode was used to measure pH of the solution during the experiments. The pH meter was connected to a computer, which was programmed to automatically obtain pH readings every 10 seconds. […]
First, the HCL solution was standardized by titrating it with standard NaOH solution. This was carried out three times an d end point was determined from the inflection point using the titration profile. […]
The pH titration curve consists of […]: initial gradual decrease in pH as the base is slowly neutralized by the acid; middle region showing slow decrease in pH as excess acid is added to the solution. The pKa of the base is calculated from the initial region. The pH corresponding to midpoint of the initial part of the curve is the approximate pKa of the Hup A. Further, the exact pKa of Hup A was calculated by method described by Albert and Sergeant (1971), which is incorporated herein by reference. […]

[6] = Partitioning of Hup A into n-octanol from buffers of different pH; format: physicochemical; conditions: 48 hrs
Description: The buffers used to prepare solutions of Hup A for the partitioning study were the same as those used in the solubility studies, i.e., isotonic phosphate buffers with pH 5, 6, 7, 7.4, 8 and 9. Initially, 100 ml of n-octanol was mixed with 100 ml of phosphate buffers and placed in shaking water bath at 37° C. for 24 hours to saturate the n-octanol with buffer prior to study. Then the n-octanol was separated from the buffer using a separating funnel.
Solutions of Hup A (about 150 ug/ml concentration) were prepared separately in each of the six buffers. Then 1 ml each of each buffers was pipetted to three test tube. To these test tubes, 1 ml of the n-octanol was added. Controls were set up consisting only of buffer solutions without n-octanol to account for changes in concentration due to evaporation of buffer or degradation of drug if present. The tubes were sealed and placed in a shaking water bath at 37° C. for 48 hrs. Samples of 100 ul each were taken from both the n-octanol layer and the buffer layer and analyzed by HPLC. Partition coefficients were determined from the ratio of concentration of Hup A in n-octanol to that in buffer.
It appears that at high pH, when Hup A exists predominantly as a neutral moiety, the partition coefficient is high. As the pH is reduced the fraction of the unionized moiety decreases and so does the partition coefficient. At pH 5, when Hup A exists predominantly as a ionized moiety the partition coefficient is below 1, indicating high affinity of the drug for the buffer phase.

[7] = In vitro permeation of Hup A through human cadaver skin from donor solutions (Valia-Chien permeation cell); format: in vitro ADME; conditions: for Permeation arate: receptor pH 7.4; for Permeability × 10^3: values × 10^3
Description: Human cadaver skin is employed as model for studying in vitro transdermal permeation of Hup A. The skin specimens of human cadavers, obtained from Ohio Valley Skin & Tissue Center, are mounted between the two half cells of Valia-Chien Permeation Cell. Donor solutions were prepared in isotonic phosphate buffers of pH 5, 6, 7, 7.4, 8 and 9. Concentration of each solution was about 750 ug/ml. Permeation studies were carried out in triplicate at each pH evaluated. The receptor solution used in each case was isotonic phosphate buffer pH 7.4 to simulate physiological conditions.
As stated above human cadaver skin was used in the permeation studies. The skin, obtained frozen, was first thawed and rinsed with in normal saline. The skin was then blotted to remove excess moisture and cut into 2 cm×2 cm pieces. Each skin piece was sandwiched between two microscope glass slides and the thickness was measured using a micrometer. These skin pieces were then mounted between the two half-cell of Valia-Chien permeation cells, with the stratum corneum facing the donor half-cell. The respective donor and receptor solutions were added (3.3 ml each). Samples of 100 ul each were taken from the receptor compartment at various intervals up to 48 hours and were analyzed by HPLC. The volume of receptor compartment was replaced with fresh isotonic phosphate buffer after each sample. At end of 48 hours, a single aliquot was taken from the donor compartment and analyzed after suitable dilution to evaluate the amount of Hup A lost from the donor in 48 hours.
The rate of Hup A permeation is determined based on the general formula for the determination of the rate of permeation of a drug across a membrane as illustrated by the following equation (1): [formula]
Sink conditions were maintained throughout the permeation study i.e. Cd>>Cr. Permeability can be calculated using solubility of Hup A as the saturation concentration in donor cell (Cd). [formula]
Intrinsic permeability was calculated by correlating the permeability with the thickness of the skin:
Wherein P=intrinsic permeability and h=thickness in cm.
Generally speaking, higher the partitioning of the drug into the skin, higher the permeation will be. The pH-dependent partitioning behavior of Hup A is seen to be reflected in its skin permeation profiles. The intrinsic permeability-pH profiles of Hup A (FIG. 5) is similar to that observed for partition coefficient-pH relationship (FIG. 3). Again, a sigmoidal relationship is observed. Further, the amount lost from the donor solution, which corresponds to the sum of the amount permeated and the amount retained in the skin, was also seen to follow similar relationship (FIG. 6).

[8] = test system: rat embryo hippocampus and cerebellum cultured cells; conditions: cited from earlier work

C/C=C1\[C@H]2C=C(C)C[C@]1(N)c1ccc(=O)[nH]c1C2 [Hup A, Huperzine A]
pharmaco-kinetics evaluation [1]: absorbed rapidly, distributed widely in the body, and eliminated at a moderate rate | Solubility ([2]; pH 5 buffer): 6.225 (0.153) mg/ml | Solubility ([2]; pH 6 buffer): 4.639 (0.001) mg/ml | Solubility ([2]; pH 7 buffer): 2.123 (0.042) mg/ml | Solubility ([2]; pH 7.4 buffer): 1.325 (0.042) mg/ml | Solubility ([2]; pH 8 buffer): 1.201 (0.017) mg/ml | Solubility ([2]; pH 9 buffer): 1.044 (0.018) mg/ml | patients with significant improvement in memory, cognition and behavior [3]: 58% | side effects [3]: without causing any severe side effects | permeation through the blood-brain barrier ([4]; rat, in vivo): able to permeate through the blood-brain barrier | Ach, norepinephrine and dopamine in rat cortex ([4]; systemic or local administration): dose-dependent increase | pKa [5]: 6.97 (+/−0.06) | Partition Coefficient ([6]; n-octanol/buffer pH 6, 37° C.): 1.681 (0.010) | Partition Coefficient ([6]; n-octanol/buffer pH 7, 37° C.): 11.376 (0.415) | Partition Coefficient ([6]; n-octanol/buffer pH 7.4, 37° C.): 18.359 (0.294) | Partition Coefficient ([6]; n-octanol/buffer pH 8, 37° C.): 24.063 (0.515) | Partition Coefficient ([6]; n-octanol/buffer pH 9, 37° C.): 27.463 (0.131) | Permeation arate ([7]; donor pH 5, about 750 ug/ml): 0.776 (0.029) ug/cm^2/hr | Permeability × 10^3 ([7]; donor pH 5): 1.026 (0.038) cm/hr | Permeation arate ([7]; donor pH 6, about 750 ug/ml): 0.213 (0.088) ug/cm^2/hr | Permeability × 10^3 ([7]; donor pH 6): 0.290 (0.119) cm/hr | Permeation arate ([7]; donor pH 7, about 750 ug/ml): 0.633 (0.225) ug/cm^2/hr | Permeability × 10^3 ([7]; donor pH 7): 0.846 (0.300) cm/hr | Permeation arate ([7]; donor pH 7.4, about 750 ug/ml): 0.759 (0.368) ug/cm^2/hr | Permeability × 10^3 ([7]; donor pH 7.4): 1.007 (0.489) cm/hr | Permeability × 10^3 ([7]; donor pH 8): 4.434 (1.7050) cm/hr | Permeation arate ([7]; donor pH 9, about 750 ug/ml): 5.082 (2.162) ug/cm^2/hr | Permeability × 10^3 ([7]; donor pH 9): 6.118 (2.603) cm/hr | death of neuronal cell caused by toxic levels of glutamate [8]: decreases the death of neuronal cell
